We go through 26 compounds from US8357673B2, “4-arylazo-3,5-diamino-pyrazole compounds and use thereof” (Univerzita Palackeho V Olomouci, priority 2004, dated 2013).

Series [1] has as its target T1, CDK2/cyclin E (Homo sapiens, UniProt P24941).
T1 construct: made in house; host or cells: Sf9 insect cells (baculovirus co-infection)
In words: CDK2/cyclin E kinase inhibition assay (histone H1, [γ-33P]ATP). It counts as biochemical. Conditions: for IC50: averaged from triplicates, 15 μM ATP. On the procedure: (§1) CDK1/cyclin B and CDK2/cyclin E kinases were produced in Sf9 insect cells coinfected with appropriate baculoviral constructs. The cells were harvested 70 h post infection, incubated in lysis buffer (50 mM Tris pH 7.4, 150 mM NaCl, 5 mM EDTA, 20 mM NaF, 1% Tween 20, 1 mM DTT, 0.1 mM PMSF, 0.5 μg/ml leupeptine, 1 μg/ml aprotonine) for 30 min on ice and the soluble fraction was recovered by centrifugation at 20.000 g for 10 min. The enzymes were purified on NiNTA column (Qiagen), stored at 4° C. and used within a week. To carry out the enzyme inhibition assays under linear conditions, the final point test system for kinase activity measurement was used. Kinase was added to reaction mixture in such a way as to obtain linear activity with respect to the concentration of enzyme and with respect to time. For determination of kinase inhibition the reaction mixture contained 1 mg/ml histone H1 (type III-S, Sigma) in the presence of 15 μM ATP, 0.05 μCi [γ-^33P]ATP and the tested compound in a final volume of 10 μl; all in reaction buffer (50 mM HEPES, 10 mM MgCl2, 5 mM EGTA, 10 mM 2-glycerolphosphate, 1 mM NaF, 1 mM DTT, pH 7.4). After 20 min incubation, the reactions were stopped by the addition of 5 μl of a 3% H3PO4, aliquots were spotted on P-81 phosphocellulose (Whatman, USA) that was subsequently washed 3× with 5% H3PO4 and finally air dried. The measurements of kinase inhibition employed digital image analyzer BAS-1800 (Fujifilm, Japan). Kinase activity was usually expressed as a percentage of maximum activity. […] For the purpose of kinetic analysis, the activity was expressed as arbitrary units (AU) of digital image analyzer signal.

In series [2] the target is T2, CDK1/cyclin B (Homo sapiens, UniProt P06493).
T2 construct: made in house; host or cells: Sf9 insect cells (baculovirus co-infection)
T2 sequence (P06493 whole entry): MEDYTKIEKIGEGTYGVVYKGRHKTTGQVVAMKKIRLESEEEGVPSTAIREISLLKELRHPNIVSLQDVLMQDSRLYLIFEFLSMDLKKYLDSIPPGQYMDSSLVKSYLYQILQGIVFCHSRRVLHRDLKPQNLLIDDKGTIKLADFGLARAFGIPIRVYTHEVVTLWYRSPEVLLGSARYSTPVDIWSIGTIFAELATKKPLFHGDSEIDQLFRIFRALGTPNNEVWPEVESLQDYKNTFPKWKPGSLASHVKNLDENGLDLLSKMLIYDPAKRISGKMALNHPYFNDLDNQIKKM
T2 sequence (P14635 whole entry partner): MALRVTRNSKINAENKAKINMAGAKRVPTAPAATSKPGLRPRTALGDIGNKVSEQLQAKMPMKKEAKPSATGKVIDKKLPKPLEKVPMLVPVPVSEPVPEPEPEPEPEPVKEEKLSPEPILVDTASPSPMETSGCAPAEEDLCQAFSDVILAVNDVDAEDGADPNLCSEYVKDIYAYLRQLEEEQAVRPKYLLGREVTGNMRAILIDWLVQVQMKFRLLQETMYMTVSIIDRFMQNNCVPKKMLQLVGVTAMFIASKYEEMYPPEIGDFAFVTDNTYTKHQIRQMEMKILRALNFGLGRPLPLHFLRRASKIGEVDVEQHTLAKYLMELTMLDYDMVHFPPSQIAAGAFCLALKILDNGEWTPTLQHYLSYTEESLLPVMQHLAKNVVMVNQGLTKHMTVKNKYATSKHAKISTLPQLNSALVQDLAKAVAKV
The series can be described thus: CDK1/cyclin B kinase inhibition assay (histone H1, [γ-33P]ATP). To be noted: averaged from triplicates; 15 μM ATP. It counts as biochemical. Here is the method:
as §1

Series [3] concerns K562 (human chronic myeloblastic leukemia). In words: In vitro cytotoxicity, Calcein AM, 72 h. The series is classed as cell-based. To be noted: for IC50: read-out: IC50 (μM) K562; for % of viable cells K562: at 100 μM. On the procedure:
(§2) Tested drugs were added to the cell cultures in six different concentration and kept at 37° C. and 5% CO2 for three days.
(§3) The cells, cultured in DMEM (supplemented with 10% fetal calf serum, 4 mM glutamine, 100 IU/ml penicillin, 100 μg/ml streptomycin) in a humidified CO2 incubator at 37° C., were redistributed into 96-well microtitre plates (10.000 cells per well). After 12 h preincubation, tested compounds in six-fold dilutions were added. Treatment of cells with the tested compounds (in the 1-100 μM range) lasted for 72 h.

The test system of series [4] is HOS (human osteogenic sarcoma). In words: In vitro cytotoxicity, Calcein AM, 72 h. To be noted: for IC50: read-out: IC50 (μM) HOS; for % of viable cells HOS: at 100 μM. It counts as cell-based. On the procedure: as §2, §3
The test system of series [5] is G 361 (human malignant melanoma). In words: In vitro cytotoxicity, Calcein AM, 72 h. The series is classed as cell-based. Conditions: for IC50: read-out: IC50 (μM) G361; for % of viable cells G361: at 100 μM. Here is the method:
as §2, §3

In series [6] the test system is MCF7 (human breast adenocarcinoma). In words: In vitro cytotoxicity, Calcein AM, 72 h. It counts as cell-based. Conditions: for IC50: read-out: IC50 (μM) MCF7; for % of viable cells MCF7: at 100 μM. Here is the method: as §2, §3
A short description of series [7]: In vitro cytotoxicity, Calcein AM, 72 h. The series is classed as cell-based, human. To be noted: human, at 100 μM. Here is the method: as §2, §3
The mark [8] stands for this setting: G 361 cells (human malignant melanoma), 72 h, read-out: % of viable cells G361.
Where [9] appears, read: HOS cells (human osteogenic sarcoma), read-out: % of viable cells HOS.
[10] abbreviates: K562 cells (human chronic myeloblastic leukemia), 72 h, read-out: % of viable cells K562.
Setting [11] is: MCF7 cells (human breast adenocarcinoma), 72 h, read-out: % of viable cells MCF7.

Like-named read-outs stand apart in the source and are kept apart here. Bounds are passed on as bounds.

By IC50 is commonly meant the midpoint of a concentration-inhibition curve.

Regarding `Nc1n[nH]c(N)c1/N=N/c1cccc(C(=O)c2cccc(/N=N/c3c(N)n[nH]c3N)c2)c1` [Compound 33d], the IC50 in series [1] and in series [2] was greater than 100 µM throughout.
For the compound `N=C(N)NS(=O)(=O)c1ccc(N=Nc2c(N)n[nH]c2N)cc1` [Compound 19b, N-[amino(imino)methyl]-4-[(3,5-diamino-pyrazol-4-yl)azo]-benzansulfonamide], in series [2], the IC50 was greater than 100 µM.
For the compound `Nc1n[nH]c(N)c1N=Nc1cccc2ccccc12` [Compound 28b, 3,5-diamino-4-(naphth-1-yl)azo-pyrazole], the IC50 in series [1] is 10 µM; in series [3] (72 h, Calcein AM, triplicates) it was 50 ± 3 µM; in series [4] (Calcein AM, triplicates) it was greater than 100 µM; in series [5] (72 h, Calcein AM, triplicates), greater than 100 µM; in series [6] (72 h, Calcein AM, triplicates), greater than 100 µM; in series [2] it was 5.5 µM. In addition, the “% of viable cells K562” value in series [3] (72 h) is listed as “(7.7 ± 6%)”. Moreover, the “% of viable cells HOS” value in series [4] is “(79 ± 8%)”. Also, in series [5] (72 h), the “% of viable cells G361” value is on record as “(55 ± 14%)”. Also, in series [6] (72 h), the “% of viable cells MCF7” value is “(56 ± 1%)”.
Consider `Nc1n[nH]c(N)c1/N=N/c1ccc(S(=O)(=O)c2ccc(/N=N/c3c(N)n[nH]c3N)cc2)cc1` [Compound 34d], for which the IC50 in series [1] and in series [2] was greater than 100 µM throughout.
As for `Cc1cc2nc(Cc3ccccc3N=Nc3c(N)n[nH]c3N)c(=O)[nH]c2cc1C` [Compound 27b], the IC50 in series [1] and in series [2] was greater than 100 µM throughout.
Turning to `Nc1n[nH]c(N)c1/N=N/c1ccc(Br)cc1` [Compound 5b, 3,5-diamino-4-(4-bromo)phenylazo-pyrazole], the IC50 in series [2] was greater than 100 µM.
On to `COc1ccc(NS(=O)(=O)c2ccc(N=Nc3c(N)n[nH]c3N)cc2)nn1` [Compound 23b, 4-[(3,5-diamino-pyrazol-4-yl)-azo]-N-(6-methoxypyridazin-3-yl)-benzensulfonamide], for which the IC50 in series [1] and in series [2] was greater than 100 µM each time.
On to `CC(=O)NS(=O)(=O)c1ccc(N=Nc2c(N)n[nH]c2N)cc1` [Compound 18b, N-({4-[(3,5-diamino-pyrazol-4-yl)azo]phenyl}sulfonyl)-acetamide], for which, in series [1], the “inhibition of the enzyme CDK2 (in words)” value is given as “failed to inhibit the enzyme” and the IC50 is greater than 100 µM. In series [2], this compound yielded an IC50 greater than 100 µM.
With `Nc1n[nH]c(N)c1/N=N/c1ccccc1O` [Compound 10b, 3,5-diamino-4-(2-hydroxy)phenylazo-pyrazole], the IC50 in series [3] (Homo sapiens, K562, 72 h, Calcein AM, triplicates) is greater than 100 µM; in series [4] (Homo sapiens, Calcein AM, triplicates), greater than 100 µM; in series [5] (Homo sapiens, G-361, 72 h, Calcein AM, triplicates) it was greater than 100 µM; in series [6] (Homo sapiens, MCF7, 72 h, Calcein AM, triplicates) it was greater than 100 µM; in series [2], 3.6 µM. Besides, the viability at 72 h, 100 µM in series [7] (setting [8]) was 74%; in series [7] (setting [9]) it was 84%; in series [7] (setting [10]), 72%; in series [7] (setting [11]) it was 72%.
Turning to `Nc1n[nH]c(N)c1N=Nc1ccccc1` [Compound 1b, 3,5-diamino-4-(phenyl)azo-pyrazole], the IC50 was 22 µM in series [1]; greater than 100 µM in series [3] (72 h, Calcein AM, triplicates); greater than 100 µM in series [4] (Calcein AM, triplicates); greater than 100 µM in series [5] (72 h, Calcein AM, triplicates); greater than 100 µM in series [6] (72 h, Calcein AM, triplicates); 25 µM in series [2]. Further, in series [3] (72 h), the “% of viable cells K562” value is reported as “(90 ± 14%)”. In series [4], the “% of viable cells HOS” value is “(83 ± 8%)”. For the same compound, in series [5] (72 h), the “% of viable cells G361” value was “(75 ± 2%)”. Further, the “% of viable cells MCF7” value in series [6] (72 h) was “(74 ± 5%)”.
Turning to `Nc1n[nH]c(N)c1N=Nc1ccc2ccccc2c1` [Compound 29b, 3,5-diamino-4-(naphth-2-yl)azo-pyrazole], the values for the IC50 in series [1] and in series [2] were 15 µM and 16 µM, respectively.
The compound `Nc1n[nH]c(N)c1N=Nc1ccccc1Cc1nc2ccccc2[nH]c1=O` [Compound 26b] showed a 50% inhibitory concentration (IC50) in series [1] of 95 µM.
As to `Nc1n[nH]c(N)c1/N=N/c1ccc(C(=O)c2ccc(/N=N/c3c(N)n[nH]c3N)cc2)cc1` [Compound 32d], the IC50 in series [1] and in series [2] was greater than 100 µM each time.
On to `Nc1n[nH]c(N)c1/N=N/c1ccc(Cl)cc1` [Compound 4b, 3,5-diamino-4-(4-chloro)phenylazo-pyrazole], for which the IC50 in series [1] stood at 45 µM; in series [2], 60 µM.
As to `Nc1n[nH]c(N)c1N=Nc1ccc(S(=O)(=O)Nc2nccs2)cc1` [Compound 20b, 4-[(3,5-diaminopyrazol-4-yl)azo]-N-(thiazol-2-yl)-benzensulfonamide], the IC50 in series [1] and in series [2] was greater than 100 µM throughout.
In series [2], `Nc1n[nH]c(N)c1/N=N/c1ccc(I)cc1` [Compound 6b, 3,5-diamino-4-(4-iodo)phenylazo-pyrazole] yielded an IC50 greater than 100 µM.
For `Nc1n[nH]c(N)c1/N=N/c1ccc(F)cc1` [Compound 3b, 3,5-diamino-4-(4-fluoro)phenylazo-pyrazole], the IC50 was determined as 24 µM in series [1] and 25 µM in series [2].
Taken in the same sequence, the figures for `Nc1n[nH]c(N)c1N=Nc1cccc(C(=O)O)c1` [Compound 14b, 3,5-diamino-4-(3-carboxy)phenylazo-pyrazole] were 27 µM and 34 µM.
Turning to `Nc1n[nH]c(N)c1/N=N/c1ccc([N+](=O)[O-])cc1` [Compound 9b, 3,5-diamino-4-(4-nitro)phenylazo-pyrazole], the IC50 is 71 ± 6 µM in series [3] (Homo sapiens, K562, 72 h); greater than 100 µM in series [4] (Homo sapiens); greater than 100 µM in series [5] (Homo sapiens, G-361, 72 h); greater than 100 µM in series [6] (Homo sapiens, MCF7, 72 h); 16 µM in series [2]. In addition, the viability at 72 h, 100 µM in series [7] (setting [8]) is 61%; in series [7] (setting [9]) it was 80%; in series [7] (setting [10]) it was 25%; in series [7] (setting [11]), 60%.
For `Nc1n[nH]c(N)c1/N=N/c1ccccc1-c1nc2ccccc2[nH]c1=O` [Compound 25b], the IC50 in series [1] and in series [2] was greater than 100 µM each time.
For the compound `Cc1c(/N=N/c2c(N)n[nH]c2N)c(=O)n(-c2ccccc2)n1C` [Compound 31b], the IC50 in series [1] and in series [2] was greater than 100 µM each time.
Regarding `Nc1n[nH]c(N)c1/N=N/c1ccc(-c2nc3ccccc3[nH]c2=O)cc1` [Compound 24b], the IC50 in series [1] and in series [2] was greater than 100 µM throughout.
Consider `COc1cnc(NS(=O)(=O)c2ccc(N=Nc3c(N)n[nH]c3N)cc2)nc1` [Compound 22b, 4-[(3,5-diamino-pyrazol-4-yl)-azo]-N-(5-methoxypyrimidin-2-yl)-benzensulfonamide], for which the IC50 in series [1] and in series [2] was greater than 100 µM throughout.
Consider `Cc1cc(C)nc(NS(=O)(=O)c2ccc(N=Nc3c(N)n[nH]c3N)cc2)n1` [Compound 21b, 4-[(3,5-diamino-pyrazol-4-yl)-azo]-N-(4,6-dimethylpyrimidin-2-yl)benzensulfonamide], for which, in series [1], the “inhibition of the enzyme CDK2 (in words)” value is listed as “failed to inhibit the enzyme”. Besides, the concentration for half-maximal inhibition (IC50) in series [1] and in series [2] was greater than 100 µM throughout.
On to `Nc1n[nH]c(N)c1N=Nc1ccccc1C(=O)O` [Compound 13b, 3,5-diamino-4-(2-carboxy)phenylazo-pyrazole], for which the IC50 in series [1] was 88 µM; in series [2], 70 µM.
Regarding `Nc1n[nH]c(N)c1/N=N/c1cccc(S(=O)(=O)c2cccc(/N=N/c3c(N)n[nH]c3N)c2)c1` [Compound 35d], the IC50 in series [1] and in series [2] was greater than 100 µM throughout.
